This test concerns the target T1, IL-1R/IL-1RacP (Sus scrofa, UniProt A0A5G2QSI4).
T1 construct: Slices of brain exposing the pial vessels; from tissue; host or cells: piglet brain slices, pial vessels
T1 sequence (A0A5G2QSI4 21-572): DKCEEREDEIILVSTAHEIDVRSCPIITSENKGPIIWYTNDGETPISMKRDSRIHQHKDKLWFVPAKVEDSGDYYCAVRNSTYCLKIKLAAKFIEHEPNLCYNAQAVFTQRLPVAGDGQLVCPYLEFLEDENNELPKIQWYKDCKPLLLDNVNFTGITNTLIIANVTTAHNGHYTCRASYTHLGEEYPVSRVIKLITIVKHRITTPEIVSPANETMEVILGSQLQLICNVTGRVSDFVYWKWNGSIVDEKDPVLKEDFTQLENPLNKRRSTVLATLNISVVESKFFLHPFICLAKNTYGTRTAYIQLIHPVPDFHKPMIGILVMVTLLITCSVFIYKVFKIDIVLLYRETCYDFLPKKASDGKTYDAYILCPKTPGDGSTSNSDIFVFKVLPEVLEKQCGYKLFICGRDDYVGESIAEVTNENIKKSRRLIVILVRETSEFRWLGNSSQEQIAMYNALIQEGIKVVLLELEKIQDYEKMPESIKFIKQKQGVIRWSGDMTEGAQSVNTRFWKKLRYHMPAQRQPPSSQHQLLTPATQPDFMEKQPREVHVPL
Briefly: Vasomotricity of piglet pial vessels (IL-1β induced vasodilation). The note with it: vasodilation induced by IL-1. The protocol:
In another experiment, vasomotricity variation of piglets pial vessels was studied to further evaluate the particular effect of cytokine receptor subfragments on the vasodilatator effect of IL-1β. Brains were dissected from Yorkshire piglets. Slices of brain exposing the pial vessels were pinned to a wax base of a 20 ml bath containing Krebs buffer (pH 7.4) equilibrated with 95% O2-5% CO2 and maintained at 37° C. Microvessels were visualized and recorded using a video camera mounted on a dissecting microscope. Vascular diameter was measured using a digital image analyzer and the images were recorded before and after topical application of constricting agent U46619 at 10^−7M. After stabilization of the vasomotricity, IL-1 ? was added until stabilization of vasodilatation. Peptides were then injected at different concentrations from 10^−10 to 10^−5M. Reversal of vasodilatation (i.e., vasoconstriction) was visualized and measured as described above. IL-1 ? induced vasodilatation in the microvasculature of the piglet brain was observed. Examples of the inhibitory activity of cytokine subfragment peptides are given below.

Structures are written as SMILES. Where a SMILES comes first, the peptide text is derived from it. [ ]: non-standard residue; d: D form.

Turning to `CC(C)C[C@@H](NC(=O)[C@@H](CCC(=O)O)NC(=O)[C@H](NC(=O)[C@H](NC(=O)[C@@H](Cc1ccc(O)cc1)NC(=O)[C@H](N)CCCNC(=N)N)[C@H](C)O)C(C)C)C(=O)N[C@H](C)C(N)=O` [API-101.10, RYTVELA] (H-[dR][dY][dT][dV][dE][dL][dA]-NH2; N-terminus and C-terminus assumed), the “potency relative to API-101” value turned out to be 100 fold.

The values are drawn from patent publication US20110144014A1, “CYTOKINE RECEPTOR MODULATORS AND USES THEREOF” (CENTRE HOSPITALIER UNIVERSITAIRE SAINTE-JUSTINE, priority 2005, published 2011).
